According to patent US9873693B2 (Sunesis Pharmaceuticals, Inc., priority 2006, dated 2018):

Assays:
[1] = target: phosphorylated PDK1 (Homo sapiens (Human), UniProt O15530); test: PDK1 kinase assay (coupled PDK1/AKT/FAM-crosstide, IMAP); assay type: biochemical; settings: 0.5 nM phosphorylated PDK1, 24 μM ATP; read-out: Inhibition of phospo-PDK1 in vitro IC50
[2] = target: dephosphorylated PDK1 (Homo sapiens (Human), UniProt O15530); test: as above; assay type: biochemical; settings: 25 nM un-phosphorylated PDK1, 24 μM ATP; read-out: Inhibition of dephospo-PDK1 in vitro IC50
Method: A PDK1 kinase assay was performed as follows. PDK1 (amino acids 51-360) and AKT2 (amino acids 140-467 fused to PIFtide, amino acids […]) were expressed as N-terminally tagged GST fusion proteins in insect cells and purified to greater than 90% homogeneity. PDK1 protein was divided into two fractions, one of which was subsequently dephosphorylated. To generate dephosphorylated PDK1, the PDK1 was reacted with GST-tagged lambda-phosphatase in vitro. GST was subsequently cleaved proteolytically for both phosphorylated and dephosphorylated PDK1. Protein preparations were run on glutathione Sepharose columns to remove GST and GST-tagged lambda-phosphatase, if present. Phosphorylated PDK1 and dephosphorylated PDK1 were verified by mass-spectrometry. Enzyme activity was determined in a coupled PDK1/AKT/FAM-crosstide assay using either phosphorylated or unphosphorylated PDK1 and phosphorylation of FAM-crosstide was determined by standard IMAP protocol (Molecular Devices). For inhibition studies, compounds were titrated 3-fold in DMSO and diluted 40-fold into assay buffer (10 mM Tris HCl pH7.2; 10 mM MgCl2; 0.01% Triton X-100; 1 mM DTT) containing PDK1, AKT2, and FAM-crosstide. (final concentrations: 25 nM un-phosphorylated PDK1 or 0.5 nM phosphorylated PDK1, 30 nM unphosphorylated AKT2, and 100 nM crosstide substrate). The kinase reaction was initiated by adding ATP to a final concentration of 24 μM for both forms of PDK1 and incubated at 25° C. for 30 min. To detect assay product, the kinase reaction was combined with Progressive Binding Solution (1:600 Progressive Binding Reagent, 50% Buffer A, 50% Buffer B, Molecular Devices) in a 1:3 ratio. The mixture was incubated for 2 hours at 25° C. and the plate was scanned on an Analyst AD with excitation at 485 nm and emission at 530 nm. The fluorescence polarization value “P” is defined by the equation below. The value “mP” is generated by multiplying the P value for each reaction well by a factor of 1000. The value “ΔmP” for each well is the mP value for that well minus the mP value for the average negative control. P=(Fpar−Fperp)/(Fpar+Fperp) Eq.:
Where “par” is fluorescence intensity parallel to the excitation plane; and “perp” is fluorescence intensity perpendicular to the excitation plane. ΔmP values were plotted as a function of compound concentration and the data were analyzed with a 4-parameter fit using GraphPad Prism software.

[3] = tested on: phospho-akt (Thr308); test: phospho-akt (Thr308) MSD ELISA in PC-3 cells; assay type: cell-based; settings: Homo sapiens, PC-3, 2 h, PC-3 cells, 2 hours, no serum; read-out: Inhibition of P308 Akt in cells using MSD EC50
Summary of the method: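 PC-3 cells plated overnight in 10% FBS medium, then treated with three-fold serial compound dilutions in serum-free medium; DMSO-only wells as high control. Lysates captured on BSA-blocked MSD plates overnight at 4 degrees, detection antibody 1 hr RT, electrochemiluminescence read on MSD reader.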

dephosphorylated PDK1, sequence (O15530 51-360): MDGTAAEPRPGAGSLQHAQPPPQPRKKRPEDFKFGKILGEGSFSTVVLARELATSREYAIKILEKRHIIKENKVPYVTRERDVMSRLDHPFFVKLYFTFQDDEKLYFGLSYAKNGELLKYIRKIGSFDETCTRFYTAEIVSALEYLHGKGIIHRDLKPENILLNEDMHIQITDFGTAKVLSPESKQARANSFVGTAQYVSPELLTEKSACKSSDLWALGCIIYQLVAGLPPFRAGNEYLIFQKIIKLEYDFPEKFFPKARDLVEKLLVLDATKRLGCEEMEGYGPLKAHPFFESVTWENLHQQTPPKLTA
phosphorylated PDK1, sequence (O15530 51-360): as above

| SMILES | IC50 [1] [nM] | IC50 [2] [nM] | EC50 [3] [nM] |
| --- | --- | --- | --- |
| COc1ccnc(NCCC#CCCNC(=O)c2cc(F)cn(Cc3cccc(F)c3)c2=O)n1 [Cpd 258] | < 500 | < 500 |  |
| O=C(NCc1cccc(-c2cccc3[nH]ncc23)c1)c1cccn(Cc2ccc(F)c(F)c2)c1=O [Cpd 329] |  | 500 to 10000 | > 5000 |
| COc1ccnc(NCCC#CCCNC(=O)c2cc(Cl)cn(C(C)c3ccc(Cl)cc3)c2=O)n1 (stereo not shown) [Cpd 106] | < 500 | < 500 |  |
| O=C(Nc1cccc(-c2ccc3[nH]c(=O)[nH]c3c2)c1)c1cccn(Cc2ccc(F)c(F)c2)c1=O [Cpd 162] | 500 to 10000 | < 500 |  |
| CNC(=O)C[C@@H](NC(=O)c1cccn(Cc2ccc(F)c(F)c2)c1=O)c1ncc(-c2c[nH]c3ncccc23)o1 [Cpd 248] |  | < 500 |  |
| COc1ccnc(NCCC#CCCNC(=O)c2cc(Cl)cn(Cc3ccc(Cl)cc3)c2=O)n1 [Cpd 256] | 500 to 10000 | < 500 |  |
| CC(=O)Nc1cc(NCCCCCNC(=O)c2cccn(Cc3cccc(Cl)c3)c2=O)ncn1 [Cpd 99] | > 10000 | 500 to 10000 |  |
| O=C(NCCCCCNc1nc2ccccc2o1)c1cccn(Cc2cccc(Cl)c2)c1=O [Cpd 100] | > 10000 | 500 to 10000 |  |
| O=C(NCc1ncc(-c2c[nH]c3ncccc23)o1)c1cccn(Cc2ccc(F)c(F)c2)c1=O [Cpd 120] | < 500 | < 500 |  |
| COc1ccnc(NCC/C=C/CCNC(=O)c2cccn(Cc3cccc(Cl)c3)c2=O)n1 [Cpd 103, 1-(3,4-Difluoro-benzyl)-2-oxo-1,2-dihydro-pyridine-3-carboxylic acid 3-(4-amino-1H-pyrazolo[3,4-d]pyrimidin-3-yl)-benzylamides] | 500 to 10000 | < 500 |  |
| COc1ccnc(NCCCCCNC(=O)c2cccn(Cc3cc(F)c(F)c(F)c3)c2=O)n1 [Cpd 267] |  | < 500 |  |
| COc1ccnc(NCCCCCNC(=O)c2cccn(C(C)c3ccc(Cl)cc3)c2=O)n1 (stereo not shown) [Cpd 254] | 500 to 10000 | < 500 |  |
| O=C(NS(=O)(=O)c1ccc(-c2c[nH]c3ncccc23)s1)c1cccn(Cc2ccc(F)c(F)c2)c1=O [Cpd 231] | 500 to 10000 | 500 to 10000 |  |
| O=C(NCc1cccc(-c2cc[nH]c(=O)c2)c1)c1cccn(Cc2ccc(F)c(F)c2)c1=O [Cpd 224] |  | 500 to 10000 |  |
| Cc1sc(CNC(=O)c2cccn(Cc3ccc(F)c(F)c3)c2=O)nc1-c1c[nH]c2ncccc12 [Cpd 275] | 500 to 10000 | < 500 |  |
| Nc1ncnc2[nH]nc(-c3cccc(CNC(=O)c4cccn(Cc5ccc(F)c(F)c5)c4=O)c3)c12 [Cpd 5] | < 500 | < 500 |  |
| O=C1Cc2ccc(/C=C/CNC(=O)c3cc(I)cn(Cc4cc(F)c(F)c(F)c4)c3=O)cc2N1 [Cpd 178] | < 500 | < 500 |  |
| COc1ccnc(NCCCCCNC(=O)c2cc(Cl)cn(Cc3ccc(Cl)cc3)c2=O)n1 [Cpd 252] | 500 to 10000 | < 500 |  |
| O=C(NCCOc1ccc2c(c1)[nH]c(=O)n2CCN1CCCC1)c1cccn(Cc2ccc(F)c(F)c2)c1=O [Cpd 130] | 500 to 10000 | 500 to 10000 |  |
| COc1ccnc(NCCCCCNC(=O)c2cc(Br)cn(Cc3cccc(F)c3)c2=O)n1 [Cpd 253] | 500 to 10000 | < 500 |  |
| O=C(N[C@H](COc1ccc2[nH]c(=O)[nH]c2c1)C1CCOC1)c1cccn(Cc2cc(F)c(F)c(F)c2)c1=O (stereo partly shown) [Cpd 185] | < 500 | < 500 |  |
| O=C(NCCOc1cc(F)c2[nH]c(=O)[nH]c2c1)c1cccn(Cc2ccc(F)c(F)c2)c1=O [Cpd 158] | 500 to 10000 | < 500 |  |
| O=C(NCc1cccc(-c2ccc3nsnc3c2)c1)c1cccn(Cc2ccc(F)c(F)c2)c1=O [Cpd 218] | > 10000 | 500 to 10000 |  |
| O=C(NCc1nc(-c2c[nH]c3ncccc23)c[nH]1)c1cccn(Cc2ccc(F)c(F)c2)c1=O [Cpd 116] | 500 to 10000 | < 500 |  |
| O=C(NCCOc1cc2[nH]c(=O)[nH]c2cc1F)c1cccn(Cc2ccc(F)c(F)c2)c1=O [Cpd 155] | 500 to 10000 | < 500 |  |
| COc1ccnc(NCCC#CCCNC(=O)c2cccn(Cc3ccc(F)c(F)c3)c2=O)n1 [Cpd 263] | < 500 | < 500 |  |

| SMILES | IC50 [1] [nM] | IC50 [2] [nM] | EC50 [3] [nM] |
| --- | --- | --- | --- |
| O=C(NCCCCc1c[nH]c2ncccc12)c1cccn(Cc2cc(F)c(F)c(F)c2)c1=O [Cpd 271] | < 500 | < 500 |  |
| COc1ccnc(NCCCCCNC(=O)c2cccn(Cc3ccc(Cl)c(Cl)c3)c2=O)n1 [Cpd 104] | 500 to 10000 | < 500 |  |
| COc1ccnc(NCCC#CCNC(=O)c2cccn(Cc3cccc(Cl)c3)c2=O)n1 [Cpd 262] | < 500 | < 500 |  |
| O=C(NCCSc1ccc2[nH]c(=O)[nH]c2c1)c1cccn(Cc2ccc(F)c(F)c2)c1=O [Cpd 118] | 500 to 10000 | < 500 |  |
| O=C(NCc1cccc(-c2ccc3nonc3c2)c1)c1cccn(Cc2ccc(F)c(F)c2)c1=O [Cpd 219] | > 10000 | 500 to 10000 |  |
| O=C(Nc1cccn(Cc2ccc(F)c(F)c2)c1=O)c1cccc(-c2c[nH]c3ncccc23)c1 [Cpd 288] |  | < 500 |  |
| O=C(NCc1cccc(-c2c[nH]c3ncc(-c4ccco4)cc23)c1)c1cccn(Cc2ccc(F)c(F)c2)c1=O [Cpd 57] | < 500 | < 500 |  |
| CCc1ccnc(NCCC#CCCNC(=O)c2cc(Cl)cn(Cc3cccc(Cl)c3)c2=O)n1 [Cpd 257] | < 500 | < 500 |  |
| COc1ccnc(NCCCCCCNC(=O)c2cccn(Cc3cccc(F)c3)c2=O)n1 [Cpd 261] | 500 to 10000 | < 500 |  |
| O=C(NCc1cccc(-c2cc(=O)[nH][nH]2)c1)c1cccn(Cc2ccc(F)c(F)c2)c1=O [Cpd 217] | > 10000 | 500 to 10000 |  |
| COc1ccnc(NCCCCCNC(=O)c2cccn(Cc3ccc(F)c(Cl)c3)c2=O)n1 [Cpd 266] | 500 to 10000 | < 500 |  |
| Nc1cnc(Nc2cccc(NC(=O)N3CCCC3)c2)nc1NCCCCCCNC(=O)c1cccn(Cc2cccc(Cl)c2)c1=O [Cpd 249] | > 10000 | < 500 |  |
| Cc1nc(CNC(=O)c2cccn(Cc3ccc(F)c(F)c3)c2=O)sc1-c1c[nH]c2ncccc12 [Cpd 115] | 500 to 10000 | < 500 |  |
| Cn1c(=O)[nH]c2cc(OCCNC(=O)c3cccn(Cc4ccc(F)c(F)c4)c3=O)ccc21 [Cpd 119, N-(3-(4-chloro-H-pyrrolo[2,3-b]pyridin-3-yl)benzyl)-1-(3,4-difluorobenzyl)-2-oxo-1,2-dihydropyridine-3-carboxamide] | < 500 | < 500 |  |
| COc1ccnc(NCCCCCNC(=O)c2cccn(Cc3cccc(Cl)c3)c2=O)n1 [Cpd 101] | 500 to 10000 | 500 to 10000 |  |
| O=C(NCc1nnc(-c2c[nH]c3ncccc23)s1)c1cccn(Cc2ccc(F)c(F)c2)c1=O [Cpd 124] | < 500 | < 500 |  |
| COc1ccnc(NCCC#CCCNC(=O)c2cccn(Cc3ccc(Cl)c(Cl)c3)c2=O)n1 [Cpd 255] | < 500 | < 500 |  |
| COc1ccnc(NCCC#CCCNC(=O)c2cccn([C@H](C)c3ccc(Cl)cc3)c2=O)n1 [Cpd 259] | < 500 | < 500 |  |
| O=C1CC(c2cccc(CNC(=O)c3cccn(Cc4ccc(F)c(F)c4)c3=O)c2)CN1 (stereo not shown) [Cpd 111] | 500 to 10000 | 500 to 10000 |  |
| O=C(NCc1nc(-c2c[nH]c3ncccc23)cs1)c1cccn(Cc2cccc(Cl)c2)c1=O [Cpd 272] | < 500 | < 500 |  |
| O=C(NC1(c2nnc(-c3c[nH]c4ncccc34)o2)CC1)c1cccn(Cc2ccc(F)c(F)c2)c1=O [Cpd 281] | < 500 | < 500 |  |
| CNC(=O)[C@H](COc1ccc2[nH]c(=O)[nH]c2c1)NC(=O)c1cccn(Cc2cc(F)c(F)c(F)c2)c1=O [Cpd 157] | < 500 | < 500 |  |
| O=C(NCCSc1ccc2[nH]c(=O)[nH]c2c1)c1cccn(Cc2ccc(F)c(F)c2)c1=O [Cpd 117] | 500 to 10000 | 500 to 10000 |  |
| Nc1ccc(-c2cccc(CNC(=O)c3cccn(Cc4ccc(F)c(F)c4)c3=O)c2)cn1 [Cpd 214] |  | 500 to 10000 |  |
| O=C(NCc1cccc(-c2c[nH]c3ncccc23)c1)c1cccc(Nc2ccccc2)n1 [Cpd 54] | < 500 | < 500 |  |
